The results in this text go back to PMC6153414 (Protein Science : A Publication of the Protein Society, 2018).

Assay [1] addresses T1, DotBL (Legionella pneumophila, UniProt O52185).
T1 construct: gene dotB

The target of assay [2] is DotB from the dot/icm system encoded by the L. pneumophila genome (DotBL), wild type (L. pneumophila) (UniProt Q5ZS43). The experiment in a line: SEC-MALS. (SEC sorts molecules by how far they enter the pores of the column.)

Consider `Nc1ncnc2c1ncn2[C@@H]1O[C@H](COP(=O)(O)OP(=O)(O)NP(=O)(O)O)[C@@H](O)[C@H]1O` [AMP–PNP], for which, in assay [1], the “malachite green phosphate release, inhibition after 10 min preincubation” value is “the analogue binds and competes with ATP resulting in an inhibition of phosphate release”. In the case of “DotB from the dot/icm system encoded by the L. pneumophila genome (DotBL), wild type (from UniProt Q5ZS43 1-387) (enzyme)”, the stoichiometry N in assay [2] was found to be 6.

One may read the stoichiometry N as the number of molecules, sites or subunits per partner or assembly.
